Test results published in ChEMBL document CHEMBL3102825, “Exploration of a series of 5-arylidene-2-thioxoimidazolidin-4-ones as inhibitors of the cytolytic protein perforin” (J Med Chem, 2013).
Active and inactive are the calls of the source. The rule behind the calls is not given here.

Biological target: Perforin-1 (Mus musculus) (UniProt P10820)
Assay: Reversible binding affinity to recombinant mouse perforin by SPR analysis

Perforin-1 (Mus musculus), sequence (P10820 whole entry, looked up): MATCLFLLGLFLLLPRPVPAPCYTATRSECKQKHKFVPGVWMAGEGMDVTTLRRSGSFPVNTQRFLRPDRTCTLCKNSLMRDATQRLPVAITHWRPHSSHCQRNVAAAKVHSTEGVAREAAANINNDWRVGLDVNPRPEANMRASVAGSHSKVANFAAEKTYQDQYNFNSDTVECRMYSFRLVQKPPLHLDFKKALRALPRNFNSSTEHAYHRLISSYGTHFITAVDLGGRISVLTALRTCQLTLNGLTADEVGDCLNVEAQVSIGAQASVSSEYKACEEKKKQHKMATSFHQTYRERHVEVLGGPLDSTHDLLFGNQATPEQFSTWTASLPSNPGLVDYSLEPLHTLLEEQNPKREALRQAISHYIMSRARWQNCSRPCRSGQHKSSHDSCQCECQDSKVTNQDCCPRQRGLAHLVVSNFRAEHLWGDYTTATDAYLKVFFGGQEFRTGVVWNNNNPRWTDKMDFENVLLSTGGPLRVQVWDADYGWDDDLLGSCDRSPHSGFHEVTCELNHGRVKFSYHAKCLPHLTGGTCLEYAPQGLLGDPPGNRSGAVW

Question: `CC1c2cc(-c3ccc(/C=C4/[N-]C(=S)NC4=O)s3)ccc2C(=O)N1C.[Na+]` (configuration not stated) was tested. Which Activity did it give?
Answer: Its Activity is “Active”.

Question: For `O=C1NC(=S)[N-]/C1=C/c1ccc(-c2ccc3c(c2)CCNC3=O)s1.[Na+]`, which Activity is on record?
Answer: Its Activity is “Active”.
